Measured values taken from ChEMBL document CHEMBL4418260, “Cyclopentanecarboxamide derivatives, medicaments containing such compounds and their use” (2017).

Key:
Format in all cases: cell-based
[1] = target: Fatty acid synthase (Mus musculus) (UniProt P19096); assay: Inhibition of FAS in mouse N42 cells assessed as [14C]-acetate incorporation at 10 uM preincubated for 60 mins followed by [14C]-acetate addition and measured after 4 hrs by beta scintillation counting method relative to control; design: scale not given: the % may be the effect or the level left
Fatty acid synthase = Fatty acid synthase (Homo sapiens, UniProt P49327); assay: Inhibition of human HeLa cell derived FAS preincubated for 60 mins in presence of acetyl coenzyme A and NADPH followed by malonyl coenzyme A addition and measured after 10 mins by fluorescence method
[2] = target: Fatty acid synthase (Mus musculus) (UniProt P19096); assay: Inhibition of FAS in mouse N42 cells assessed as [14C]-acetate incorporation at 100 uM preincubated for 60 mins followed by [14C]-acetate addition and measured after 4 hrs by beta scintillation counting method relative to control; design: scale not given: the % may be the effect or the level left

Sequence of Fatty acid synthase (Mus musculus) (P19096 whole entry): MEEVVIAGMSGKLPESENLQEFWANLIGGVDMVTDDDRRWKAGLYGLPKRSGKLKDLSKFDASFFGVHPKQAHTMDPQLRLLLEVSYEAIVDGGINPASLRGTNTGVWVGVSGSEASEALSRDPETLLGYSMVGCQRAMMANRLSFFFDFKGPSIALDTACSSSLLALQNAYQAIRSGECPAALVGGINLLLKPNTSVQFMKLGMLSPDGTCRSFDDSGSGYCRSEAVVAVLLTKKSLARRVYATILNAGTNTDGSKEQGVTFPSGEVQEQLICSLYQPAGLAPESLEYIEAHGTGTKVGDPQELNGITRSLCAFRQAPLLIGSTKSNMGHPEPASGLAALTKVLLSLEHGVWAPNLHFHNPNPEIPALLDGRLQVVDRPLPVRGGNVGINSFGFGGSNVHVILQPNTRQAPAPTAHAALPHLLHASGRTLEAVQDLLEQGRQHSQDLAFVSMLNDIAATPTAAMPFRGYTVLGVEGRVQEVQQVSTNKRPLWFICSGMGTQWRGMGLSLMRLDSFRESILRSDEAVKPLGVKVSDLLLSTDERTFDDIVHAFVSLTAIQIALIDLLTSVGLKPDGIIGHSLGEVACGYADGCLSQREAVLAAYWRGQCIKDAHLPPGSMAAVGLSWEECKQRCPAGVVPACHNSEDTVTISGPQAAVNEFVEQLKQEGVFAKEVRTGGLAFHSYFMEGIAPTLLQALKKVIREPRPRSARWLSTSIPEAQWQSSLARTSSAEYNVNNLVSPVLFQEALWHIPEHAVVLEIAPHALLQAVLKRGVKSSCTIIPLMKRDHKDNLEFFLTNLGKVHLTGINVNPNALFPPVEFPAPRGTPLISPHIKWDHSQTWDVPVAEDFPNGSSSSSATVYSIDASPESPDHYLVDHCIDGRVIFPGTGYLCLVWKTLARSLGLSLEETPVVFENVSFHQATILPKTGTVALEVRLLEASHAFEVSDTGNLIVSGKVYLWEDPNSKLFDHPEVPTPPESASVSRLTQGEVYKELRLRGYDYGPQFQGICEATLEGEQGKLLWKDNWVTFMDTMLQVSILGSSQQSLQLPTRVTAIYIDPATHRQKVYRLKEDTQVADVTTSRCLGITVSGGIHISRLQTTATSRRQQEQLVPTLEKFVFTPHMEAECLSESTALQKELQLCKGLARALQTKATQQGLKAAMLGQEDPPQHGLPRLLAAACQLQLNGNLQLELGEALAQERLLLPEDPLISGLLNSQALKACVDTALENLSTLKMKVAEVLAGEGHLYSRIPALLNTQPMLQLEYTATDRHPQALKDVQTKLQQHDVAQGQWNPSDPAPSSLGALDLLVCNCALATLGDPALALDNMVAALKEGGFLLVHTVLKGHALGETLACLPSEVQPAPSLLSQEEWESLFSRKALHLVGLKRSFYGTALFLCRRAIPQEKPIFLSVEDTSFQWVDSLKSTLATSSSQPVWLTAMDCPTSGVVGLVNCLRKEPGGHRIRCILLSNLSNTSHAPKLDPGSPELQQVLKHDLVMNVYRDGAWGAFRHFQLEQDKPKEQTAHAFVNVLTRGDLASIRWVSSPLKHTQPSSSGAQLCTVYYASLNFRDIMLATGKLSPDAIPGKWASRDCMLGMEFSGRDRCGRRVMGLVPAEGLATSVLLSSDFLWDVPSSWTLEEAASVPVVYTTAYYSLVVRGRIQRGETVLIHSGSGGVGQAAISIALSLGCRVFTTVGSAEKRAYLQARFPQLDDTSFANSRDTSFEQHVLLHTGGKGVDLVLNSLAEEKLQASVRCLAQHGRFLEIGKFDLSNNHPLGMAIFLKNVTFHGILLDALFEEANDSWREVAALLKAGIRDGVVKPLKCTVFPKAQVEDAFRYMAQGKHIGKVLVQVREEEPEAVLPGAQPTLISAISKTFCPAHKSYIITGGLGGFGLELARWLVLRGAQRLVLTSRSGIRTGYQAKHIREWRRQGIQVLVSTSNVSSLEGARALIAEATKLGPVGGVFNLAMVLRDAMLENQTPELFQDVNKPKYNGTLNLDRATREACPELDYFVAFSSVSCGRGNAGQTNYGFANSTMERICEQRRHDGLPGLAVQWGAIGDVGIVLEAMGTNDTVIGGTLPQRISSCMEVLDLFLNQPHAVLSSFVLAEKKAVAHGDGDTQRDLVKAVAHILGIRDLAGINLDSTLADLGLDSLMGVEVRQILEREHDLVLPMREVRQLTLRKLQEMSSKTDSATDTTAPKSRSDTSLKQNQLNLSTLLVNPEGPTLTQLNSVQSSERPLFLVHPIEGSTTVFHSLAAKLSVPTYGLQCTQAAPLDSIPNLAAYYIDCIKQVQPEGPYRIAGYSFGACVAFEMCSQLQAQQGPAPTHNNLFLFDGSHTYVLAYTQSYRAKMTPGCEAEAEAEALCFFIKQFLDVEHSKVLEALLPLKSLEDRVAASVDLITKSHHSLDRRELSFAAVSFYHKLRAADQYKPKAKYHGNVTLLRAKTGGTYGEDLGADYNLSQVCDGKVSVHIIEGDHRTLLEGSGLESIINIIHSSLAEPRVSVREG
Sequence of Fatty acid synthase (P49327 whole entry): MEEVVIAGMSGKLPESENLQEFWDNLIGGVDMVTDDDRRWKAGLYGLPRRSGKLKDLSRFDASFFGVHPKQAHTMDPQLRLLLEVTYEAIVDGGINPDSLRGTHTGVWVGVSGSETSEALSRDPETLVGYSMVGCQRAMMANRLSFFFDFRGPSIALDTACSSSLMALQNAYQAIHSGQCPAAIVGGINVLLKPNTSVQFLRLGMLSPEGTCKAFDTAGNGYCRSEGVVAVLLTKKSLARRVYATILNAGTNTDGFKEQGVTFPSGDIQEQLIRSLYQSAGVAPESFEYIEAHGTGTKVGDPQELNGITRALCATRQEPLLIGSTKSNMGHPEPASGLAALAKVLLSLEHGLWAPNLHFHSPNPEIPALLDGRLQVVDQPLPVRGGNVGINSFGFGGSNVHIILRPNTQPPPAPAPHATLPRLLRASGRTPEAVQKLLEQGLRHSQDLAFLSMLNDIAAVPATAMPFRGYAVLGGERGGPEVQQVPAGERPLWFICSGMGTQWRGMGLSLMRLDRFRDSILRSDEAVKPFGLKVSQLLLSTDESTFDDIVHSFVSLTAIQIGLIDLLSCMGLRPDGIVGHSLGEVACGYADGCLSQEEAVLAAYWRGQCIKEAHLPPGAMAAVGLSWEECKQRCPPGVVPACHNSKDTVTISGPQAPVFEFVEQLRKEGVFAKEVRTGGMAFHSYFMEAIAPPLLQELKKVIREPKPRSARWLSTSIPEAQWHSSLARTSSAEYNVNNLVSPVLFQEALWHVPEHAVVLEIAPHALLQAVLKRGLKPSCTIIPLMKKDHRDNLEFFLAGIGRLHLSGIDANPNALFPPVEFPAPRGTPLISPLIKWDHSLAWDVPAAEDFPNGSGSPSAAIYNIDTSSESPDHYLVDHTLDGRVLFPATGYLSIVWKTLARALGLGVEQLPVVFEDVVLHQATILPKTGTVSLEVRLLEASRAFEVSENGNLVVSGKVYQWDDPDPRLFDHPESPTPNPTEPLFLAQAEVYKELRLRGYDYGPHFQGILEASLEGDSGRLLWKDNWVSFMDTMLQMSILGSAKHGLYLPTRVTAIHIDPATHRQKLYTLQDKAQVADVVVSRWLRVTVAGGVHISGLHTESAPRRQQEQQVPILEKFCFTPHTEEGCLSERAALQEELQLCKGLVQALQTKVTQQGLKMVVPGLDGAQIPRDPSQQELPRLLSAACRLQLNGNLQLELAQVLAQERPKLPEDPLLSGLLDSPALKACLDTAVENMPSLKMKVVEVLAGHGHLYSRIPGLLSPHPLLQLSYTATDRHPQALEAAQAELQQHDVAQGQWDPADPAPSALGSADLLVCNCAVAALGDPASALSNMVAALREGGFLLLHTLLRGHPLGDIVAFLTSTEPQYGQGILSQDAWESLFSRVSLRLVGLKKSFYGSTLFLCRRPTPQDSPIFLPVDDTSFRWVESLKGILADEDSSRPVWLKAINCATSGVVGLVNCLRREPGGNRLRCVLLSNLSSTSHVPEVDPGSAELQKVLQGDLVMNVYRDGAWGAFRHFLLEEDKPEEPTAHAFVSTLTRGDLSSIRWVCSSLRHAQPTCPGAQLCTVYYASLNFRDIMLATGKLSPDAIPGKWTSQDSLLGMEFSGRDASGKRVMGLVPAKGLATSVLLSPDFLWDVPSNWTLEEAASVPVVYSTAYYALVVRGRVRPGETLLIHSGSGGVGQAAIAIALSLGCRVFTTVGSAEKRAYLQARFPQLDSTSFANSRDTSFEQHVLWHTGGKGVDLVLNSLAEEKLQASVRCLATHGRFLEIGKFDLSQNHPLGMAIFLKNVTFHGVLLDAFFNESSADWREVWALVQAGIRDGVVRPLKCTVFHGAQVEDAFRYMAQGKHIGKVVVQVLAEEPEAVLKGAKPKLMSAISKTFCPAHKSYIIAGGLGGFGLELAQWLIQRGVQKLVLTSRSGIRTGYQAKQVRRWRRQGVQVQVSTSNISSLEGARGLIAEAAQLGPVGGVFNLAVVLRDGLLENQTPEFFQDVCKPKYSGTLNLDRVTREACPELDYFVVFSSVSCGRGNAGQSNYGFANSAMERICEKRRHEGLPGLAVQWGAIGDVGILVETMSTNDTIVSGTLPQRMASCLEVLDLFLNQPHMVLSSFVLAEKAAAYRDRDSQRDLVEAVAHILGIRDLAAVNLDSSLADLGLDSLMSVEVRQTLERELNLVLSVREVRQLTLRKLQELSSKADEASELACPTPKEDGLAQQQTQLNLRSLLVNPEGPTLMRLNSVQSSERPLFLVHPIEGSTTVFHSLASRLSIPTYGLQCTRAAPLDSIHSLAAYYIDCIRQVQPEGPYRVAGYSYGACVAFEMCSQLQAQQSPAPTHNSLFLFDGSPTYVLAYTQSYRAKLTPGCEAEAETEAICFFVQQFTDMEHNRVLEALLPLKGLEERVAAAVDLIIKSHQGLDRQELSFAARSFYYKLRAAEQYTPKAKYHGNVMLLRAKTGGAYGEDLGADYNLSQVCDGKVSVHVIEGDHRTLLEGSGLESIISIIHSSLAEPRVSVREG

SMILES	Activity [1]	other results
CCCC(=O)N[C@H]1CC[C@@H](C(=O)N(C)c2ccc(-c3nc4ccccc4o3)cc2)C1	81%	
CC(=O)N[C@H]1CC[C@@H](C(=O)N(C)c2ccc(-c3nc4ccccc4o3)cc2)C1	81.7%	
CCC(=O)N[C@H]1CC[C@@H](C(=O)N(C)c2ccc(-c3ccccc3)cc2)C1	76.8%	
CCC(=O)N[C@H]1CC[C@@H](C(=O)N(C)c2ccc(-c3nc4ccccc4[nH]3)cc2)C1	80.8%	
CN(C)CCCCCC(=O)N[C@H]1CC[C@@H](C(=O)N(C)c2ccc(-c3nc4ccccc4o3)cc2)C1		IC50 (Fatty acid synthase): 500 to 3000 nM
C/C=C/C/C=C/CCC(=O)[C@H]1O[C@H]1C(N)=O		Activity [2]: 73.3%
CCC(=O)N[C@H]1CC[C@@H](C(=O)N(C)c2ccc(-c3nc4ccccc4n3C)cc2)C1	85.7%	
CCC(=O)N[C@H]1CC[C@@H](C(=O)N(C)c2ccc(-c3nc4ccccc4o3)cc2)C1	64.1%	
